{"source": "patent US20240115534A1", "about": "“COMPOSITION FOR MUSCLE ENHANCEMENT AND USE OF SAME” (J-OIL MILLS, INC., priority 2021, published 2024)", "system": "mouse myoblast strain C2C12 (myotube cells)", "experiment": "Myotube area and maximum transverse diameter of C2C12 myotube cells (anti-MHC immunostaining, imaging analysis)", "format": "cell-based", "conditions": "for Maximum transverse diameter/myotube cell (%) Average value / Myotube area/field of view (%) Average value: two days, untreated control = 100%", "method": "Cells of mouse myoblast strain C2C12 (ATCC catalog no. CRL-1772)\nProliferation culture medium: DMEM (high glucose) to which 10% FBS and 1% PS are added\nDifferentiation culture medium: DMEM (high glucose) to which 2% HS and 1% PS are added\nThe fatty acids indicated below were added to the culture medium so as to reach a concentration of 0.05 mM, 0.2 mM, or 0.5 mM. As a positive control, insulin-like growth factor (IGF-1) (made by Sigma-Aldrich Co., LLC), which is a factor for promoting formation of myotube cells, was added to the culture medium so as to reach a concentration of 10 ng/mL.\nThe fatty acids were dissolved in dimethyl sulfoxide (DMSO) (made by Nacalai Tesque Inc.) to formulate solutions having a concentration of 0.05 M, 0.2 M, 0.5 M, or 1 M, and the solutions were added in 1/1000 amounts to the culture medium to reach a target final concentration of 0.05 mM, 0.2 mM, 0.5 mM, or 1 mM. The IGF-1 serving as a positive control was formulated to a concentration of 10 μg/mL using 0.1 N HCl, and the resultant solution was added in a 1/1000 amount to the culture medium to reach a target final concentration of 10 ng/mL.\nThe C2C12 cells were recovered in a T75 flask using the proliferation culture medium and cultured using a CO2 incubator (37° C., 5% CO2, moist; same applies below). The culture medium was replaced at intervals of one to two days. The cells were peeled away (3 to 5 minutes) using 0.25% trypsin-EDTA (made by Nacalai Tesque Inc.) (1 mL) at the point in time when 80% confluence was reached, and 5 mL of culture medium was added, after which the components were centrifuged (180×g, 5 minutes, room temperature). A supernatant was removed, and cell pellets were suspended in fresh culture medium and sown in a 96-well black plate at a rate of 10,000 cells/0.1 mL/well. The next day, the culture medium was replaced with the differentiation culture medium, and culturing was carried out for two days to induce differentiation into myotube cells. The culture medium was then replaced with differentiation culture medium (100 μL) to which the substance under test was added, and culturing was carried out for a further two days.\nAfter treatment with the substance under test, the wells were refilled with 100 μL of a fixing solution (4% PFA: paraformaldehyde (made by Nacalai Tesque Inc.)), incubated for 15 minutes at 4° C., and then washed three times using Dulbecco's Phosphate-Buffered Saline (DPBS) (made by Thermo Fisher Scientific Inc.). 100 μL of a blocking/membrane permeation liquid solution (0.3% TritonX/3% BSA/DPBS) was added, and the components were incubated for 30 minutes at room temperature. The aforementioned solution replaced with a primary antibody solution (primary antibody reagent (diluted by a factor of 300)/3% BSA/DPBS) and then incubated overnight at 4° C. The primary antibody solution was removed, and the wells were washed three times using a blocking solution (3% BSA/DPBS) before being refilled with a secondary antibody solution (secondary antibody reagent (diluted by a factor of 500)/0.1% nucleus-staining reagent/3% BSA/DPBS) and incubated for two hours at room temperature. Finally, the wells were washed three times using DPBS and refilled with new DPBS before imaging analysis was carried out.\nAn automatic cell image system (“Operetta CLS,” made by PerkinElmer Inc.) was used in the imaging analysis of the immunostained cells. Nine fields of view of central sections of the wells were imaged using a 10× objective lens, and then fluorescent regions marked by the anti-MHC antibodies and cell nucleus regions marked by the nucleus-staining reagent were detected using image analysis software (Harmony 4.6) included with the system. […]", "key": {"[1]": {"conditions": "Table 3 data, 0.5 mM, vs comparative example 3-1"}, "[2]": {"conditions": "Table 1 data, 0.5 mM, vs comparative example 1-1, Dunnett's test, 5%"}, "[3]": {"conditions": "Table 2 data, 0.2 mM, vs comparative example 2-1"}, "[4]": {"conditions": "Table 2 data, 0.5 mM, vs comparative example 2-1"}}, "data": [{"compound": "CCCCCCCCCCCCCC(=O)O", "note": "[Tetradecanoic acid (C14:0), Tetradecanoic acid]", "values": [{"measurement": "Maximum transverse diameter/myotube cell (%) Average value", "setting": "Table 3, 0.5 mM", "value": 108.6, "unit": "%"}, {"measurement": "Myotube area/field of view (%) Average value", "setting": "Table 3, 0.5 mM", "value": 114.7, "unit": "%"}, {"measurement": "Maximum transverse diameter/myotube cell (%) Average value", "setting": "Table 3, 1 mM", "value": 124.4, "unit": "%"}, {"measurement": "Myotube area/field of view (%) Average value", "setting": "Table 3, 1 mM", "value": 107.3, "unit": "%"}, {"measurement": "area of the myotube cells within the fields of view, change versus control (in words)", "setting": "[1]", "value": "significantly increased"}, {"measurement": "per-cell maximum transverse diameter of the myotube cells, change versus control (in words)", "setting": "[1]", "value": "significantly increased"}, {"measurement": "per-cell maximum transverse diameter of the myotube cells, change versus control (in words)", "setting": "Table 3 data, 1.0 mM, vs comparative example 3-1", "value": "significantly increased"}]}, {"compound": "CCCCCCCCCCCCC(=O)O", "note": "[Tridecanoic acid (C13:0), Tridecanoic acid]", "values": [{"measurement": "Maximum transverse diameter/myotube cell (%) Average value", "setting": "Table 1, 0.5 mM, n=5", "value": 124.1, "unit": "%"}, {"measurement": "Myotube area/field of view (%) Average value", "setting": "Table 1, 0.5 mM, n=5", "value": 98.1, "unit": "%"}, {"measurement": "per-cell maximum transverse diameter of the myotube cells, change versus control (in words)", "setting": "[2]", "value": "significantly increased"}]}, {"compound": "CCCCCCCCCCCCCCC(=O)O", "note": "[Pentadecanoic acid (C15:0), Pentadecanoic acid]", "values": [{"measurement": "Maximum transverse diameter/myotube cell (%) Average value", "setting": "Table 1, 0.5 mM, n=5", "value": 132.2, "unit": "%"}, {"measurement": "Myotube area/field of view (%) Average value", "setting": "Table 1, 0.5 mM, n=5", "value": 116.0, "unit": "%"}, {"measurement": "area of the myotube cells within the fields of view, change versus control (in words)", "setting": "[2]", "value": "significantly increased"}, {"measurement": "per-cell maximum transverse diameter of the myotube cells, change versus control (in words)", "setting": "[2]", "value": "significantly increased"}, {"measurement": "Maximum transverse diameter/myotube cell (%) Average value", "setting": "Table 2, 0.05 mM", "value": 103.0, "unit": "%"}, {"measurement": "Myotube area/field of view (%) Average value", "setting": "Table 2, 0.05 mM", "value": 108.0, "unit": "%"}, {"measurement": "Maximum transverse diameter/myotube cell (%) Average value", "setting": "Table 2, 0.2 mM", "value": 109.3, "unit": "%"}, {"measurement": "Myotube area/field of view (%) Average value", "setting": "Table 2, 0.2 mM", "value": 119.3, "unit": "%"}, {"measurement": "Maximum transverse diameter/myotube cell (%) Average value", "setting": "Table 2, 0.5 mM", "value": 111.4, "unit": "%"}, {"measurement": "Myotube area/field of view (%) Average value", "setting": "Table 2, 0.5 mM", "value": 118.7, "unit": "%"}, {"measurement": "per-cell maximum transverse diameter of the myotube cells, change versus control (in words)", "setting": "Table 2 data, 0.05 mM, vs comparative example 2-1", "value": "significantly increased"}, {"measurement": "area of the myotube cells within the fields of view, change versus control (in words)", "setting": "[3]", "value": "significantly increased"}, {"measurement": "per-cell maximum transverse diameter of the myotube cells, change versus control (in words)", "setting": "[3]", "value": "significantly increased"}, {"measurement": "area of the myotube cells within the fields of view, change versus control (in words)", "setting": "[4]", "value": "significantly increased"}, {"measurement": "per-cell maximum transverse diameter of the myotube cells, change versus control (in words)", "setting": "[4]", "value": "significantly increased"}]}, {"compound": "CCCCCCCCCCCCCCCC(=O)O", "note": "[Hexadecanoic acid (C16:0), Hexadecanoic acid, reference compound]", "values": [{"measurement": "Maximum transverse diameter/myotube cell (%) Average value", "setting": "Table 4, 0.05 mM", "value": 98.7, "unit": "%"}, {"measurement": "Myotube area/field of view (%) Average value", "setting": "Table 4, 0.05 mM", "value": 91.4, "unit": "%"}, {"measurement": "Maximum transverse diameter/myotube cell (%) Average value", "setting": "Table 4, 0.5 mM", "value": 104.9, "unit": "%"}, {"measurement": "Myotube area/field of view (%) Average value", "setting": "Table 4, 0.5 mM", "value": 80.9, "unit": "%"}, {"measurement": "per-cell maximum transverse diameter of the myotube cells, effect (in words)", "setting": "Table 4 data, 0.05 mM", "value": "no effect"}, {"measurement": "per-cell maximum transverse diameter of the myotube cells, effect (in words)", "setting": "Table 4 data, 0.5 mM", "value": "no effect"}, {"measurement": "area of the myotube cells within the fields of view, change versus control (in words)", "setting": "Table 4 data, 0.5 mM, vs comparative example 4-1", "value": "significantly decreased"}]}, {"compound": "CCCCCCCCCCCCCCCCC(=O)O", "note": "[Heptadecanoic acid (C17:0), Heptadecanoic acid, reference compound]", "values": [{"measurement": "Maximum transverse diameter/myotube cell (%) Average value", "setting": "Table 1, 0.5 mM, n=5", "value": 98.4, "unit": "%"}, {"measurement": "Myotube area/field of view (%) Average value", "setting": "Table 1, 0.5 mM, n=5", "value": 82.8, "unit": "%"}, {"measurement": "area of the myotube cells within the fields of view, change versus control (in words)", "setting": "[2]", "value": "significantly decreased"}]}, {"compound": "IGF-1: insulin-like growth factor (IGF-1), a factor for promoting formation of myotube cells; positive control at 10 ng/mL", "values": [{"measurement": "Maximum transverse diameter/myotube cell (%) Average value", "setting": "Table 1, 10 ng/mL", "value": 101.8, "unit": "%"}, {"measurement": "Myotube area/field of view (%) Average value", "setting": "Table 1, 10 ng/mL", "value": 114.1, "unit": "%"}, {"measurement": "Maximum transverse diameter/myotube cell (%) Average value", "setting": "Table 2, 10 ng/mL", "value": 99.1, "unit": "%"}, {"measurement": "Myotube area/field of view (%) Average value", "setting": "Table 2, 10 ng/mL", "value": 126.8, "unit": "%"}, {"measurement": "Maximum transverse diameter/myotube cell (%) Average value", "setting": "Table 3, 10 ng/mL", "value": 100.4, "unit": "%"}, {"measurement": "Myotube area/field of view (%) Average value", "setting": "Table 3, 10 ng/mL", "value": 120.5, "unit": "%"}, {"measurement": "Maximum transverse diameter/myotube cell (%) Average value", "setting": "Table 4, 10 ng/mL", "value": 104.8, "unit": "%"}, {"measurement": "Myotube area/field of view (%) Average value", "setting": "Table 4, 10 ng/mL", "value": 132.8, "unit": "%"}]}, {"compound": "CCCCCCCCCCC(=O)O", "note": "[Undecanoic acid (C11:0), Undecanoic acid, reference compound]", "values": [{"measurement": "Maximum transverse diameter/myotube cell (%) Average value", "setting": "Table 1, 0.5 mM, n=5", "value": 103.1, "unit": "%"}, {"measurement": "Myotube area/field of view (%) Average value", "setting": "Table 1, 0.5 mM, n=5", "value": 103.4, "unit": "%"}, {"measurement": "effect on the myotube cells (in words)", "setting": "Table 1 data, 0.5 mM", "value": "no effect"}]}]}
